Results on 13 molecules are retold here after publication PMC10606488, “Usnic Acid Derivatives Inhibit DNA Repair Enzymes Tyrosyl-DNA Phosphodiesterases 1 and 2 and Act as Potential Anticancer Agents” (Genes, 2023).

Like-named read-outs stand apart in the source and are kept apart here.

Data set [1] concerns the target T1, Recombinant human Tdp2 (Homo sapiens, UniProt O95551).
T1 construct: made in house
T1 sequence (O95551 1-362): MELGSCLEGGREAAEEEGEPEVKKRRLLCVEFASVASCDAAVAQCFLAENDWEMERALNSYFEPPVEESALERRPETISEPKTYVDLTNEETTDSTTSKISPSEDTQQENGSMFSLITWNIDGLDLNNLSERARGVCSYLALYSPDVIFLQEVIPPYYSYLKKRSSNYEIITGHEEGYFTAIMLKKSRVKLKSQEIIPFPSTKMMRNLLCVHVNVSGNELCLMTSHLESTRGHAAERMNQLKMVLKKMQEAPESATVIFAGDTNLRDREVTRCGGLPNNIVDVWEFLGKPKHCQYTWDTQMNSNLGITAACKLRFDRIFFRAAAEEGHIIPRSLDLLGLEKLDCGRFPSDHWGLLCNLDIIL
Nature of the data set: Gel-based Tdp2 activity assay. It counts as biochemical.

The next data set relates to HEK293FT wild-type cells. The experiment in a line: Intrinsic cytotoxicity, MTT test, wild-type cells. It counts as cell-based, human. The note with it: 10 μM compound, 3 days. As to the method:
(§1) The intrinsic cytotoxicity of the compounds was examined against cell line HEK293FT (human embryonic kidney) with a standard MTT test. The cells were grown in DMEM-F12 medium, with 50 IU/mL penicillin and 50 µg/mL streptomycin (Thermo Fisher Scientific, Waltham, MA, USA) in the presence of 10% fetal bovine serum (Biolot, Saint-Petersburg, Russia) in 5% CO2 atmosphere. Tested compounds were added after formation of a 30–50% monolayer to the medium (1:100 added reagents to the total volume of the culture medium, thus the final concentration of DMSO was 1%) and the cell culture was monitored for 3 days. Control cells were grown in the presence of 1% DMSO. The measurements of cytotoxicity were carried out in three repeats.
Since Tdp inhibitors are intended to be used in therapeutic cocktails, non-toxic concentrations of the compounds are required so as not to exacerbate the already serious side effects of therapy. We studied the intrinsic cytotoxicity of the compounds, (−)-11a,d,h, that inhibited Tdp2 on HEK293FT wild-type cells and Tdp2 knockout (Tdp2^−/−) cells (Figure 3). Tdp2 knockout HEK293FT cells were obtained using the CRISPR/Cas9 method. At 10 μM concentration, the cell survival was not less than 80% for both types of cells. This concentration was chosen for further studies of the ability of the compounds to sensitize the effect of the Top2 inhibitor etoposide.

The test system of another data set is HEK293FT Tdp2−/− cells. The experiment in a line: Intrinsic cytotoxicity, MTT test, Tdp2 knockout cells. It counts as cell-based, human. Conditions: 10 μM compound, 3 days. As to the method: as §1
We performed a selection of protospacers for human Tdp2 gene knockout with the Benchling CRISPR tool (https://www.benchling.com/) (accessed on 13 February 2020). Two 20-nt protospacer sequences were selected for deletion of exon 6 (PAM sequences in brackets) of the human Tdp2 gene (NM_016614.3): Tdp2-gRNA1 […](AGG) and Tdp2-gRNA2 […](TGG). The scheme of protospacers in the Tdp2 gene is shown on Figure S9A in the Supplementary Materials. Oligonucleotides were cloned in a pSpCas9(BB)-2A-GFP (PX458) plasmid that was a kind gift from Dr. Feng Zhang (Addgene plasmid #48138; http://n2t.net/addgene:48138 (accessed on 13 February 2020), RRID:Addgene_48138) as previously described. Transfection-grade DNA plasmids were isolated with the Plasmid Plus Midi Kit (QIAGEN, Hilden, Germany).
We transfected HEK293FT cells with the constructed plasmids (0.25 µg of each) pX458-Tdp2-gRNA1 and pX458-Tdp2-gRNA2 using Lipofectamine 3000 Reagent (Thermofisher Scientific, Waltham, MA, USA). We used growth medium containing DMEM/F12 (Thermofisher Scientific, MA, USA) 1:1, 10% fetal bovine serum (Thermofisher Scientific, MA, USA), 100 U/mL penicillin–streptomycin (Thermofisher Scientific, MA, USA), and GlutaMAX (1×) (Thermofisher Scientific, Waltham, MA, USA). […]

Data set [2] concerns purified recombinant human Tdp1. Conditions: cited from earlier work.
In data set [3] the target is T1, Recombinant human Tdp2. More on the design: method as in PMID 34768766, PMID 35011303. Conditions: Figure 2; cited from earlier work.
Data set [4] concerns the target tyrosyl-DNA phosphodiesterase 2. The note with it: Figure 2; read-out: IC50 (Tdp2); cited from earlier work.
A short description of data set [5]: Effect of compounds on the cytotoxicity of etoposide, wild-type cells. Type of data set: cell-based. The note with it: human, HEK293FT wild-type cells; with vehicle (DMSO 1%), HEK293FT WT. As to the method: as §1
(§2) Different concentrations of etoposide and fixed concentrations of usnic acid derivatives 10 μM were used to evaluate the effect of the tested compounds on the cytotoxicity of etoposide.
We studied the effect of Tdp2 inhibitors on the cytotoxic effect of etoposide. The CC50 for etoposide was measured in the presence and absence of compounds. The sensitivity to etoposide in Tdp2 knockout cells was close to wild-type cells (Figure 4a). […] The significance of the differences between the metabolic activity of WT and Tdp2^−/− cells was assessed using the Mann–Whitney test. […]

Data set [6] can be described thus: Effect of compounds on the cytotoxicity of etoposide, Tdp2 knockout cells. It counts as cell-based. The note with it: human, HEK293FT Tdp2 knockout (Tdp2−/−) cells, with vehicle (DMSO 1%). As to the method: as §1, §2
We performed a selection of protospacers for human Tdp2 gene knockout with the Benchling CRISPR tool (https://www.benchling.com/) (accessed on 13 February 2020). […]
We studied the effect of Tdp2 inhibitors on the cytotoxic effect of etoposide. The CC50 for etoposide was measured in the presence and absence of compounds. […] The significance of the differences between the metabolic activity of WT and Tdp2^−/− cells was assessed using the Mann–Whitney test. […]

Setting [7] is: (−)-usnic acid derivatives, read-out: Tdp1 IC50.
[8] abbreviates: Figure 1, read-out: IC50 (Tdp1).
[9] abbreviates: Figure 2, read-out: IC50 (Tdp1).
Where [10] appears, read: (+)-usnic acid derivatives, read-out: Tdp1 IC50.

In the case of `CC(=O)C1=C(O)C=C2Oc3c(-c4csc(NN=Cc5c[nH]c6ccccc56)n4)c(O)c(C)c(O)c3C2(C)C1=O` (single isomer, unassigned; (-)) [(−)-11d], the figures for the IC50 (at Recombinant human Tdp2 [1] ((−)-usnic acid derivatives); in data set [2] (setting [7])) were 6 ± 3 µM and 0.057 ± 0.001 µM, respectively. For the same molecule, the cell survival result in the data set on HEK293FT wild-type cells and with HEK293FT Tdp2−/− cells was “not less than 80%” throughout.

For `CC(=O)C1=C(O)C=C2Oc3c(-c4csc(N/N=C/c5ccc(Br)cc5)n4)c(O)c(C)c(O)c3[C@@]2(C)C1=O` [compound 4, reference compound], the IC50 in data set [2] (setting [8]) was 0.026 µM.

As to `CC(=O)C1=C(O)C=C2Oc3c(C(=O)CSC4=NCCS4)c(O)c(C)c(O)c3[C@@]2(C)C1=O` [compound 7, reference compound], the IC50 in data set [2] (setting [9]) is 4.4 µM; on Recombinant human Tdp2 [3], about 1000 µM.

In the case of `CC(=O)C1=C(O)C=C2Oc3c(-c4csc(NN=Cc5c[nH]c6ccccc56)n4)c(O)c(C)c(O)c3C2(C)C1=O` (single isomer, unassigned; (+)) [(+)-11d], the values for the 50% inhibitory concentration (IC50) (at Recombinant human Tdp2 [1] ((+)-usnic acid derivatives); in data set [2] (setting [10])) were over 50 µM and 0.026 ± 0.006 µM, respectively.

As to `CC(=O)c1c(O)c(C)c(O)c2c1OC1=CC(=O)/C(=C(/C)NCCCc3cc(C(C)(C)C)c(O)c(C(C)(C)C)c3)C(=O)[C@@]12C` [compound 3, reference compound], the IC50 in data set [2] (setting [8]) is 0.16 µM.

Regarding `COc1ccc(C=NNc2nc(-c3c(O)c(C)c(O)c4c3OC3=CC(O)=C(C(C)=O)C(=O)C34C)cs2)cc1CN1CCN(c2ccc(F)cc2)CC1` (single isomer, unassigned; (+)) [(+)-11h], the IC50 at Recombinant human Tdp2 [1] ((+)-usnic acid derivatives) was over 50 µM; in data set [2] (setting [10]), 0.08 ± 0.007 µM.

With `NC1=CC(N)=C2C=CC(=O)N=C2C1=O` [compound 6], in data set [4], the IC50 is 1.7 µM.

On to `COc1cc([C@@H]2c3cc4c(cc3[C@@H](O[C@@H]3O[C@@H]5CO[C@@H](C)O[C@H]5[C@H](O)[C@H]3O)[C@H]3COC(=O)[C@H]23)OCO4)cc(OC)c1O` [etoposide], for which the CC50 at 3 days came out at 2.4 µM in data set [5] and 2.3 µM in data set [6].

As to `C[C@H](CCC(=O)NCCc1c[nH]c2ccccc12)[C@H]1CCC2C3CCC4C[C@H](OCc5ccccc5)CC[C@]4(C)C3C[C@H](O)[C@@]21C` (stereo partly shown) [compound 8, reference compound], the IC50 was 0.24 µM in data set [2] (setting [9]) and about 1000 µM on Recombinant human Tdp2 [3].

Regarding `CC(=O)C1=C(O)C=C2Oc3c(-c4csc(NN=Cc5ccc[nH]5)n4)c(O)c(C)c(O)c3C2(C)C1=O` (single isomer, unassigned; (+)) [(+)-11a], the values for the IC50 (at Recombinant human Tdp2 [1] ((+)-usnic acid derivatives); in data set [2] (setting [10])) were over 50 µM and 0.188 ± 0.003 µM, respectively.

As to `COc1ccc(C=NNc2nc(-c3c(O)c(C)c(O)c4c3OC3=CC(O)=C(C(C)=O)C(=O)C34C)cs2)cc1CN1CCN(c2ccc(F)cc2)CC1` (single isomer, unassigned; (-)) [(−)-11h], the IC50 at Recombinant human Tdp2 [1] ((−)-usnic acid derivatives) was 9 ± 1 µM; in data set [2] (setting [7]), 0.059 ± 0.005 µM. Moreover, the cell survival entry in the data set with HEK293FT wild-type cells and with HEK293FT Tdp2−/− cells was “not less than 80%” in each case.

On to `CC(=O)C1=C(O)C=C2Oc3c(-c4csc(NN=Cc5ccc[nH]5)n4)c(O)c(C)c(O)c3C2(C)C1=O` (single isomer, unassigned; (-)) [(−)-11a], for which the values for the IC50 (at Recombinant human Tdp2 [1] ((−)-usnic acid derivatives); in data set [2] (setting [7])) were 8 ± 4 µM and 0.018 ± 0.001 µM, respectively. In addition, the cell survival result in the data set with HEK293FT wild-type cells and in the data set with HEK293FT Tdp2−/− cells was “not less than 80%” each time.

On to `CC(C)=CCC/C(C)=C/COc1ccc2c(-c3ccc(I)cc3)cc(=O)oc2c1` [compound 2, reference compound], for which, in data set [2] (setting [8]), the IC50 was 0.62 µM.
